Biological target: T1, tyrosinase
T1 construct: gene PPO3
Test: spectrophotometric L-DOPA oxidation assay, […] nm
Format: biochemical
Details: 5 mM L-DOPA, 50 mM phosphate pH 6.5, 37 °C

SMILES | Tyrosinase
C=C(C)[C@H]1CC=C(C)CC1 [Limonene] | 86.07 ± 1.53 µg/mL
O=c1c(O)c(-c2ccc(O)c(O)c2)oc2cc(O)cc(O)c12 [Quercetin] | 111.03 ± 0.1 µg/mL
